Experimental findings from patent US10221182B2, “3,3-difluoro-piperidine derivatives as NR2B NMDA receptor antagonists” (Rugen Holdings (Cayman) Limited, priority 2015, dated 2019) are described below.

Like-named read-outs stand apart in the source and are kept apart here.

The target of data set [1] is T1, hERG channel (Homo sapiens (Human), UniProt Q12809).
Data set [2] deals with human NR1/NR2A (Homo sapiens (Human), UniProt Q05586+Q12879). In words: NR2A antagonist activity, Fluo-4 calcium influx assay in HEK293 cells. The class given is cell-based. Here is the method:
(§1) Activation of the NR2A or NR2B subtype of NMDA receptor with glutamate as an agonist and glycine co-agonist on these cells results in calcium influx, which can be monitored with fluorescent indicator Fluo-4.
(§2) For experiments, the cells were seeded onto poly-D-lysine-coated 96-well black plates with clear bottom (Corning) at a density of ˜50,000 cells/well. After overnight culture, the growth medium was removed from the wells and the cells were incubated at 37° C. for 60 min in Hanks buffer containing 4 μM fluo-4-AM (Invitrogen) and 0.1% bovine serum albumin (BSA). After dye-loading, the cells were washed three times with Hanks buffer and incubated for 10 min at room temperature with various concentrations of test compounds prepared in Hanks buffer with 0.1% BSA. The cell plates were placed onto FDSS μCell fluorescence reader (Hamamatsu). After 20 sec reading of background fluorescence, agonist glutamate at final 100 μM and co-agonist glycine at final 50 μM were added to the cells to activate the receptor, and the resulting fluorescence changes were recorded and quantified. Based on the changes in fluorescence intensity, the pharmacological effect of test compounds were analyzed and the IC50 values derived from a non-linear least squares fitting of the concentration-dependent response to a standard logistic equation using Prism (Graphpad, Inc): Amplitude=Max Amplitude/(1+([…])^n).

In the next data set the target is human NR1/NR2B (Homo sapiens (Human), UniProt Q05586+Q13224). Description: NR2B antagonist activity, Fluo-4 calcium influx assay in HEK293 cells. The note with it: hNR2B IC50, HEK293 cells expressing NR1/NR2B; glutamate 100 μM, glycine 50 μM. It counts as cell-based. Here is the method: as §1, §2
Data set [3] has as its target T1, hERG channel. In words: hERG channel inhibition, whole cell patch clamp in HEK293 cells. To be noted: for hERG @ 10 μM: inhibition at 10 μM. (In general: The hERG channel carries a current that helps repolarise heart muscle cells.)
Data set [4] concerns the target human NR1/NR2A (Homo sapiens (Human), UniProt Q12879). Description: NR2A antagonist activity, Fluo-4 calcium influx assay in HEK293 cells. The class given is cell-based. To be noted: read-out: hNR2A IC50; HEK293 cells expressing NR1/NR2A; glutamate 100 μM, glycine 50 μM. Here is the method:
as §1, §2

In the next data set the target is CYP2D6 (Homo sapiens (Human), UniProt P10635). Description: CYP P450 enzyme inhibition in pooled human liver microsome. To be noted: dextromethorphan 5 μM; for CYP2D6 @ 10 μM: inhibition at 10 μM, pooled HLM. On the technique in general: Liver microsomes are vesicles of endoplasmic reticulum, rich in cytochrome P450 enzymes.
The test system of another data set is mice. In words: Forced swim test (FST). It counts as in vivo. To be noted: male mice, intraperitoneal; imipramine 32 mg/kg IP.

Chain of human NR1/NR2A (Homo sapiens (Human), UniProt Q12879) (Q12879 23-1464, other chains not shown): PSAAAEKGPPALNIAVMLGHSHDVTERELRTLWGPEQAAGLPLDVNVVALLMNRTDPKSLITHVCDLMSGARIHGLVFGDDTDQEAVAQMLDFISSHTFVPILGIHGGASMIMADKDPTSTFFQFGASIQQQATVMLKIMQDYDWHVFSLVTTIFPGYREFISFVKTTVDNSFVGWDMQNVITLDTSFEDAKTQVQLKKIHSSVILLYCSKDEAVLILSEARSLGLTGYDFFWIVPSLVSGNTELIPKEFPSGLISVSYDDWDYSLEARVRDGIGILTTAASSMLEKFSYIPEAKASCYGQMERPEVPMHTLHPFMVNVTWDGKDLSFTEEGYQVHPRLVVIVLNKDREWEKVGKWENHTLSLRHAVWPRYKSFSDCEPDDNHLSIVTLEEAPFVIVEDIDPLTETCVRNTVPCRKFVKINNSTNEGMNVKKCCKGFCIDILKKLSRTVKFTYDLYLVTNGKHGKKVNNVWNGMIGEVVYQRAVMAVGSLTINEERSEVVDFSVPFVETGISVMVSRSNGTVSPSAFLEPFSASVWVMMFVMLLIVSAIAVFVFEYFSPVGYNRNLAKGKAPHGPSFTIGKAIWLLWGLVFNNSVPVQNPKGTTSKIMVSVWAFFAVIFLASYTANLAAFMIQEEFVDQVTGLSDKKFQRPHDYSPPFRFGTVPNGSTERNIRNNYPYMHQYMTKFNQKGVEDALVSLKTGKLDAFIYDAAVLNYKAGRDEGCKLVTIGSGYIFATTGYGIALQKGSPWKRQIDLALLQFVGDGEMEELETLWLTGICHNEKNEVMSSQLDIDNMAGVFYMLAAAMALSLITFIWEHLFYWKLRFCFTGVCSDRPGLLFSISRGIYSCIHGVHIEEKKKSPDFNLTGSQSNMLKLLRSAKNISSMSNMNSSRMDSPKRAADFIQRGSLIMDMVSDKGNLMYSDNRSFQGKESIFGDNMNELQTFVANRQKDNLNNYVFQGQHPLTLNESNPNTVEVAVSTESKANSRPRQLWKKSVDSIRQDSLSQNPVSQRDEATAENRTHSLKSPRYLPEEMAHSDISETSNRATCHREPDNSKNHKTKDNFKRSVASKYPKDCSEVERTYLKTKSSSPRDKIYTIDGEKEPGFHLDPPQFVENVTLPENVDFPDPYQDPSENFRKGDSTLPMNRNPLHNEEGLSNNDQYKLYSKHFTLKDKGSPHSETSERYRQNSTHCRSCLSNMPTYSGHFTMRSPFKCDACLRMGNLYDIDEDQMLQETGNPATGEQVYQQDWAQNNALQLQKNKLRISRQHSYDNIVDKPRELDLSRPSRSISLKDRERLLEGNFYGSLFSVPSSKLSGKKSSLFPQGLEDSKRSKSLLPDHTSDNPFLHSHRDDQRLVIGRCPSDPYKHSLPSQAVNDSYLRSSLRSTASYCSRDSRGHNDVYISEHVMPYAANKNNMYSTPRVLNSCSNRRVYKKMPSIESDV
Chain of CYP2D6 (P10635 whole entry): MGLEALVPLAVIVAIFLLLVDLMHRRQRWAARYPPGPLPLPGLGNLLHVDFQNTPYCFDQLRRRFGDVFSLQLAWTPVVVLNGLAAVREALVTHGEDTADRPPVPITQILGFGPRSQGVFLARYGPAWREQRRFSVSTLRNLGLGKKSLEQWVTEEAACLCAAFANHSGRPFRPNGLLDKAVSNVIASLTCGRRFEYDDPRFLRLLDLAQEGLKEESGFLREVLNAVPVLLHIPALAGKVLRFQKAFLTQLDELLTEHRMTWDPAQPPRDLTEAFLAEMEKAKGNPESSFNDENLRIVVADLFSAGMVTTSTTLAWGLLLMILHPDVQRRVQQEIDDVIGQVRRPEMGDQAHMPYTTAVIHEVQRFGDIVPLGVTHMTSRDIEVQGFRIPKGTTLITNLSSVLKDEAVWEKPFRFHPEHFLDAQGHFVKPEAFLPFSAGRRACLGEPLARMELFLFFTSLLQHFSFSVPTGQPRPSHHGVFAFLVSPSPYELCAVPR
Chain of human NR1/NR2B (Q13224 27-1484, other chains not shown): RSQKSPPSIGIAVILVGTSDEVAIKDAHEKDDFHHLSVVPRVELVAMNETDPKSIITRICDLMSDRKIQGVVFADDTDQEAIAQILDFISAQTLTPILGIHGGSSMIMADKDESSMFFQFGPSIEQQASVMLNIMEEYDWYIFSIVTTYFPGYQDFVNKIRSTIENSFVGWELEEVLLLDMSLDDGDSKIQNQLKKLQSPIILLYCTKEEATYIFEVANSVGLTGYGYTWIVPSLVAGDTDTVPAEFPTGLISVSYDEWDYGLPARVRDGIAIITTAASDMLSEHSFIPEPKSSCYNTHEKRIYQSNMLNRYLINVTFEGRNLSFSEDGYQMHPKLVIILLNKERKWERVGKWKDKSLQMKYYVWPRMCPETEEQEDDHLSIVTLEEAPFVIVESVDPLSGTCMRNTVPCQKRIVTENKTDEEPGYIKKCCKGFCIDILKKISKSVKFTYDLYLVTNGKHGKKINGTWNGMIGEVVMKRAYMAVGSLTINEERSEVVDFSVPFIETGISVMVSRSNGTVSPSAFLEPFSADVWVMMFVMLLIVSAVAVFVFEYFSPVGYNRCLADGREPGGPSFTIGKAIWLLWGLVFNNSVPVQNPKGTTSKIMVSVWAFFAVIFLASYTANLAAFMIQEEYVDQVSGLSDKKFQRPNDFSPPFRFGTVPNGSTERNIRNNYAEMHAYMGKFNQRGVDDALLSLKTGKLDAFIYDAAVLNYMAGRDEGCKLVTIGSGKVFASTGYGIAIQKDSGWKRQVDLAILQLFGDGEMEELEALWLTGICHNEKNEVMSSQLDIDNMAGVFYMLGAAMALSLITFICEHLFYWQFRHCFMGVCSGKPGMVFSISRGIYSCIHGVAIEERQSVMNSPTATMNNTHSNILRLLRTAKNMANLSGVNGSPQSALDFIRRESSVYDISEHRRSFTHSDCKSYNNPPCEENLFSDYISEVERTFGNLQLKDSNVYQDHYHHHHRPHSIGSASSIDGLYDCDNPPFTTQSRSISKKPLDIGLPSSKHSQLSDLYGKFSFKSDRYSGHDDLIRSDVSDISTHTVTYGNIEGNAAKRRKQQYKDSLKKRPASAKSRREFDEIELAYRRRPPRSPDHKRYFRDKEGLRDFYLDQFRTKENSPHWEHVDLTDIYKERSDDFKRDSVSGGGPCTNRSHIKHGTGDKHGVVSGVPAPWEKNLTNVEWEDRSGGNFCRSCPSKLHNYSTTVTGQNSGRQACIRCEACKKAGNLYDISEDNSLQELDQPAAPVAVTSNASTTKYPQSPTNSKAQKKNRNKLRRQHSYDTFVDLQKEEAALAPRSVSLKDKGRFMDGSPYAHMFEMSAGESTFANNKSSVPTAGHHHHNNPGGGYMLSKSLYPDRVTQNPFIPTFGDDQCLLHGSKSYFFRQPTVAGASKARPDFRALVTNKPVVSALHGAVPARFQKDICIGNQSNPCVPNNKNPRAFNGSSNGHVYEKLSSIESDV
T1 sequence (Q12809 whole entry): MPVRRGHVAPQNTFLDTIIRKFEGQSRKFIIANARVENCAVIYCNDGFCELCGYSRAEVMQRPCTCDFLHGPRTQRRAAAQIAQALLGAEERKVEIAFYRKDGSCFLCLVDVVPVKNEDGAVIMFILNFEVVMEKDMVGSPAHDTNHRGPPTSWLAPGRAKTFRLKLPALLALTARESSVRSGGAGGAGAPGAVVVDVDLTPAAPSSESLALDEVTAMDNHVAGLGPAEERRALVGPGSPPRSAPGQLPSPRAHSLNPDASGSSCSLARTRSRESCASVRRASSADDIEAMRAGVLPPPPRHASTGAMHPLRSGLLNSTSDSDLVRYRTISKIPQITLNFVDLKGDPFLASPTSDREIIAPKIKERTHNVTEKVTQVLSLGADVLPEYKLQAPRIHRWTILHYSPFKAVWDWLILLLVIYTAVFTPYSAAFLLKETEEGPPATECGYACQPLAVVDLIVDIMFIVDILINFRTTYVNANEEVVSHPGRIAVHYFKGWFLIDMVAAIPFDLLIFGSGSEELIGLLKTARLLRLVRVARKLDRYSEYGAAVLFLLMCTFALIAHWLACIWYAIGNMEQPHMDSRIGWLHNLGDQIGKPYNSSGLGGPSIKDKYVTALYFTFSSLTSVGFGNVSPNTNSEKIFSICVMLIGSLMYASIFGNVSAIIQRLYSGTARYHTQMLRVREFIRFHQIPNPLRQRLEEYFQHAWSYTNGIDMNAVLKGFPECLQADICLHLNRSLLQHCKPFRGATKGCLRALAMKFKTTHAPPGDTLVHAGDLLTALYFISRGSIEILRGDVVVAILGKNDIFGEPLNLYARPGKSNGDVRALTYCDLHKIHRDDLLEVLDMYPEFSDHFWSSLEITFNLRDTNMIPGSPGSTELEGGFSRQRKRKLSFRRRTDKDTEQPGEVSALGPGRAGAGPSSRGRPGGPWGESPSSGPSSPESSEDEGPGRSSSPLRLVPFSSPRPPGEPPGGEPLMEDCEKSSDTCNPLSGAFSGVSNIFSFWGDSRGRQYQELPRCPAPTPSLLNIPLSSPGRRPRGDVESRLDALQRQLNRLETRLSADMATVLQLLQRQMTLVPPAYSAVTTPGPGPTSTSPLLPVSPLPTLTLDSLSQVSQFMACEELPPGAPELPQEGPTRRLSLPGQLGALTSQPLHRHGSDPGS
Protocol for CYP2D6: Those CYP isoforms and their corresponding probe substrates are as follows: CYP1A2 (phenacetin, 30 μM), CYP2C9 (tolutamide, 100 μM), CYP2C19 (S-mephenytoin, 40 μM), CYP2D6 (dextromethorphan, 5 μM) and CYP3A4 (midazolam, 1 μM). All probe substrates were used at concentrations near or below their Kms. For experiment, a reaction mixture of test compound at 10 uM or in serial dilution, CYP probe substrate described above and 0.2 mg/mL pooled HLM in phosphate buffer, pH 7.4 in a final volume of 200 μL was pre-incubated at 37° C. for 10 minutes in triplicate. The reaction was initiated by addition of NADPH at final concentration of 1 mM. The reaction was terminated after 10 minutes (CYP1A2, CYP2D6 and CYP3A4) or 30 minutes (CYP2C9 and CYP2C19) by addition of 100 μL ice-cold acetonitrile with internal standard (IS). The samples were then centrifuged at 13,000 rpm and the supernatants were injected to LC-MS/MS (Agilent Technologies) to quantify the concentration of the specific metabolites of the probe substrates formed by individual CYP450 isoforms. The inhibition ratio is calculated as: (Mt−M0)/Mwater×100% in which Mt and M0 represent the concentrations of the specific probe substrate metabolite, which was formed by individual CYP450 isoform, at the beginning and end of the reaction in the presence of test compound; while Mwater represents the concentration of the specific metabolite at the end of the reaction in the absence of test compound. Test compound concentration-dependent response data experiments performed in triplicate.
Protocol for mice: Procedure. Male mice (strain NLMN) weighing 25-35 g were used for testing. All animals were housed in a temperature (22-24° C.) and humidity (50-60%) controlled environment with free access to food and water on a 12-hour light-dark cycle. Test compounds were dissolved in 0.5% dimethylsulfoxide, 4% hydroxypropyl-β-cyclodextrin water to generate the appropriate dosing solution. Drugs were administered by intraperitoneal injection at a dose volume of 10 mL/kg. Testing was initiated 20-60 minutes after dosing. […] Mice were placed in a white plastic cylinder 20 cm high with a diameter of 21 cm containing 10 cm of water at 25±2° C. The mice were videotaped for 6 minutes, and the last 4 minutes of video were analyzed by a blinded observer off-line. The observer judged the animal to be immobile when it ceased all activity (struggling, swimming, jumping etc.) and floated passively atop the water. The amount of time each animal spent in the immobile state was recorded and used for statistical analysis of compound effect. Group differences were evaluated by student's t-test or one-way ANOVA followed by post-hoc Dunnett's test.

Take `CN(c1ncnc2[nH]ncc12)C1CCN(CCc2ccc(C(F)(F)F)cc2)CC1(F)F` (racemic) [C-1.33]: the “hERG @ 10 μM” value at hERG channel [1] came out at 59%. Further, the IC50 was > 10 µM on human NR1/NR2A [2] and 0.103 µM at human NR1/NR2B.

For `FC1(F)CN(CCc2ccc(Cl)cc2)CCC1Nc1ncnc2[nH]ncc12` (single isomer, unassigned) [E2-1.3, (S*)-N-(1-(4-chlorophenethyl)-3,3-difluoropiperidin-4-yl)-1H-pyrazolo[3,4-d]pyrimidin-4-amine], the “hERG @ 10 μM” value on hERG channel [3] is 64%. The IC50 at human NR1/NR2A [4] was > 10 µM; on human NR1/NR2B, 0.0317 µM. Besides, the “CYP2D6 @ 10 μM” value on CYP2D6 is given as 27.6%.

Consider `FC(F)c1ccc(CCN2CCC(Nc3ncnc4[nH]ncc34)C(F)(F)C2)cc1` (single isomer, unassigned) [E2-1.6, (S*)-N-(1-(4-(difluoromethyl)phenethyl)-3,3-difluoropiperidin-4-yl)-1H-pyrazolo-[3,4-d]-pyrimidin-4-amine], for which the “hERG @ 10 μM” value on hERG channel [3] is given as 70%. Moreover, the IC50 on human NR1/NR2A [4] is > 10 µM. Also, the “CYP2D6 @ 10 μM” value at CYP2D6 was 37.1%.

`FC(F)(F)c1ccc(CCN2CCC(Nc3ncnc4[nH]ncc34)C(F)(F)C2)cc1` (single isomer, unassigned; (-)) [E2-1.5, (−)-(S*)-N-(3,3-difluoro-1-(4-(trifluoromethyl)phenethyl)piperidin-4-yl)-1H-pyrazolo[3,4-d]pyrimidin-4-amine]: the IC50 at hERG channel [3] (hERG IC50) was 7.6 µM; on human NR1/NR2A [4] it was > 10 µM; against CYP2D6 (CYP2D6 IC50, pooled HLM), 15.2 µM. For the same compound, the “CYP2D6 @ 10 μM” value on CYP2D6 is 37.9%.

Turning to `CN(C)CCCN1c2ccccc2CCc2ccccc21` [imipramine], the “antidepressant activity (immobility time)” value in the data set on mice was “showed the expected antidepressant activity”.

In general, IC50 refers to the concentration that gives 50% inhibition.
